Results from patent publication US6566587B1, “Mutated 5-enolpyruvylshikimate-3-phosphate synthase, gene coding for said protein and transformed plants containing said gene” (priority 1995, dated 2003).
pIC50: −log10 of the molar value.

Assays:
[1] = system: wild-type (WT) maize EPSPS; test: In vitro EPSP synthase activity, inhibition by glyphosate (phosphate liberated); type: biochemical; conditions: glyphosate 0.12 mM; 10 minutes at 37° C., pH 5.6, 1 mM phosphoenolpyruvate
Description: (§1) 2.a: Extraction of EPSP synthase The different EPSP synthase genes are introduced in the form of an NcoI-HindIII cassette into the plasmid vector pTro99a (Pharmacia, ref: 27-5007-01) cut with NcoI and HindIII. Recombinant E. coli DH10B bacteria overexpressing the different EPSP synthases are sonicated in 40 ml of buffer per 10 g of pelleted cells, and washed with this same buffer (200 mM Tris-HCl pH 7.8, 50 mM mercaptoethanol, 5 mM EDTA and 1 mM PMSF), to which 1 g of polyvinylpyrrolidone is added. The suspension is stirred for 15 minutes at 4° C. and then centrifuged for 20 minutes at 27,000 g and 4° C.
(§2) Ammonium sulphate is added to the supernatant to bring the solution to 40% saturation with respect to ammonium sulphate. The mixture is centrifuged for 20 minutes at 27,000 g and 4° C. Ammonium sulphate is added to the new supernatant to bring the solution to 70% saturation with respect to ammonium sulphate. The mixture is centrifuged for 30 minutes at 27,000 g and 4° C. The EPSP synthase present in this protein pellet is taken up in 1 ml of buffer (20 mM Tris-HCl pH 7.8 and 50 mM mercaptoethanol). This solution is dialysed overnight against two liters of this same buffer at 4° C.
(§3) The activity of each enzyme, as well as its glyphosate resistance, is measured in vitro over 10 minutes at 37° C. in the following reaction mixture: 100 mM maleic acid pH 5.6, 1 mM phosphoenolpyruvate, 3 mM shikimate 3-phosphate (prepared according to Knowles P. R. and Sprinson D. B. 1970. Methods in Enzymol 17A, 351-352 from Aerobacter aerogenes strain ATCC 25597) and 10 mM potassium fluoride. The enzyme extract is added at the last moment after the addition of glyphosate, the final concentration of which varies from 0 to 20 mM.
(§4) The activity is measured by assaying the phosphate liberated according to the technique of Tausky H. A. and Shorr E. 1953. J. Biol. Chem. 202, 675-685.

[2] = system: maize EPSPS mutant Ile102/Ser106 (Thr 102→Ile and Pro 106→Ser); test: as above; type: biochemical
Description: as §1, §2, §3, §4

maize EPSPS mutant Ala = test: as above; type: biochemical
Description: as §1, §2, §3, §4

[3] = biological target: T1, maize EPSPS mutant Ile102 (Thr 102→Ile) (Zea mays, UniProt O24566, T102I); test: as above; type: biochemical; conditions: 10 minutes at 37° C., pH 5.6, 1 mM phosphoenolpyruvate
T1 sequence (O24566 1-444 T102I): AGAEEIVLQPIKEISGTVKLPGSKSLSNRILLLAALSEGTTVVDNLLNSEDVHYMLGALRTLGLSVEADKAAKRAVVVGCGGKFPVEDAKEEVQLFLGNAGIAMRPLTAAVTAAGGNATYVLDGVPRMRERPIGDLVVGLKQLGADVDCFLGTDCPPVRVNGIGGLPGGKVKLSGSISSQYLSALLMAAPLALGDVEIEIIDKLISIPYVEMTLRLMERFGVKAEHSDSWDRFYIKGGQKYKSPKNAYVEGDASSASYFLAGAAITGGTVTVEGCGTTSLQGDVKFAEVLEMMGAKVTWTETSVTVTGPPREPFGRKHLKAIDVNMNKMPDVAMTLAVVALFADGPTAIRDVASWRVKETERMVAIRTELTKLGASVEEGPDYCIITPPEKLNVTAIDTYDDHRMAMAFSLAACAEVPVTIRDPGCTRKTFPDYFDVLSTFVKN
Description: as §1, §2, §3, §4

[4] = system: maize EPSPS mutant Ser106 (Pro 106→Ser); test: as above; type: biochemical; conditions: glyphosate 0.12 mM; 10 minutes at 37° C., pH 5.6, 1 mM phosphoenolpyruvate
Description: as §1, §2, §3, §4

[5] = system: maize EPSPS mutant Ala101/Ile102 (Gly 101→Ala and Thr 102→Ile); test: as above; type: biochemical
Description: as §1, §2, §3, §4

[6] = system: BMS (Black Mexican Sweet) maize cells bombarded with the construction pRPA-RD-130; test: Selection of transformed maize cells on medium containing herbicide; type: cell-based; conditions: 2 mM in medium, 8 weeks of selection
Description: (§5) BMS (Black Mexican Sweet) maize cells in an exponential growth phase are bombarded with the construction pRPA-RD-130 according to the principle and the protocol described by Klein et al. 1987 (Klein T. M., Wolf E. D., Wu R. and Sandford J. C. (1987): High velocity microprojectiles for delivering nucleic acids into living cells, NATURE Vol. 327 pp. 70-73).
(§6) Two days after bomardment, the cells are transferred to the same medium containing 2 mM N-(phosphonomethyl)glycine.

[7] = system: BMS (Black Mexican Sweet) maize cells not bombarded; test: Growth of maize cells on medium containing herbicide; type: cell-based; conditions: 2 mM in medium
Description: as §5, §6

[8] = glyphosate concentrations up to 10 mM

O=C(O)CNCP(=O)(O)O [glyphosate, N-(phosphonomethyl)glycine]
inhibition of enzyme activity [1]: 85% | inhibition of enzyme activity ([2]; glyphosate 0.12 mM): little or no inhibition | inhibition of enzyme activity ([2]; glyphosate 1.2 mM): still not being inhibited | inhibition of enzyme activity ([2]; glyphosate 20 mM): not reduced | inhibition of enzyme activity (maize EPSPS mutant Ala; glyphosate 1.2 mM): still not being inhibited | inhibition of enzyme activity (maize EPSPS mutant Ala; [8]): not inhibited | pIC50 ([3]; read-out: glyphosate concentration producing a 50% inhibition): 2.92 | inhibition of enzyme activity ([3]; glyphosate 0.12 mM): little or no inhibition | inhibition of enzyme activity [4]: 50% | inhibition of enzyme activity ([5]; glyphosate 0.12 mM): little or no inhibition | inhibition of enzyme activity ([5]; glyphosate 1.2 mM): still not being inhibited | inhibition of enzyme activity [5, 8]: not inhibited | callus development on selection medium [6]: calluses which develop | cell growth on medium containing herbicide [7]: blocked by the herbicide and do not develop
